According to PMC5515859, “Metabolism of F18, a Derivative of Calanolide A, in Human Liver Microsomes and Cytosol” (Frontiers in Pharmacology, 2017):

Key:
human liver microsomes = experiment: Incubation of F18 with human liver microsomes, metabolite profiling by LC-MS/MS; assay type: in vitro ADME; parameters: key: +: Metabolite detected; −: metabolite not detected; conditions: F18 50 μM, 1 h
Description: (§1) A stock solution of F18 (5 mM) was prepared in methanol. F18 (50 μM) was incubated with RLMs/DLMs/MLMs/HLMs and HLcy (0.5 mg protein/mL) in 50 mM Tris-HCl buffer containing 5 mM MgCl2 (pH 7.4) in a final volume of 200 μL. The final concentration of methanol in the incubation system was 1% (v/v). After 3 min of preincubation at 37°C, the reactions were initiated by the addition of NADPH-regenerating system (10-mM β-NADP, 100-mM 6-G-P and 10-U/mL 6-G-P-DH) or NADH. After incubation for 1 h, the reactions were terminated by the addition of two volumes of ice-cold acetonitrile. Samples without NADPH or NADH were included as controls. The incubation mixture was vortexed and centrifuged at 13,300 × g for 5 min. A 10 μL aliquot of the supernatant was injected into an LC-tandem mass spectrometer (LC-MS/MS) for analysis.
(§2) Metabolic profiling studies were performed with a Finnigan TSQ Quantum MS instrument with an electrospray ionization probe and a Finnigan SURVEYOR HPLC system (Thermo Finnigan, San Jose, CA, USA). HPLC was performed with a Zorbax SB-C18 column (2.1 × 100 mm, 3.5 μm, Agilent Corporation, CA, USA) with a column temperature of 35°C and a flow rate of 200 μL/min. F18 and its metabolites were eluted using a linear gradient method with a mobile phase consisting of solvent A (water with 0.1% formic acid) and solvent B (acetonitrile with 0.1% formic acid). […] The samples were analyzed in the positive-ionization mode, and the TSQ capillary temperature was set to 350°C. Nitrogen was used as both the sheath gas and the auxiliary gas and was delivered at 30 psi and 15 psi, respectively. The spray voltage and tube lens were set to 3,800 V and 123 V, respectively. The full-width half maximum (FWHM) was set to 0.7. MS data were acquired in the selective ion-recording mode or by collecting full scans from 200 to 600 m/z at 1 scan/s. The mass spectrometer and HPLC system were operated using Xcalibur 2.0.7 software.

VSV-G/HIV-1 viruses = experiment: microbe, parasite or virus in culture; assay type: cell-based; conditions: for IC50: Human immunodeficiency virus 1, HEK-293T, 48 h, read-out: IC50, inhibition of HIV-1 replication
rat liver microsomes = experiment: Incubation of F18 with rat liver microsomes, metabolite profiling; assay type: in vitro ADME; parameters: key: +: Metabolite detected; −: metabolite not detected; conditions: F18 50 μM, 1 h
Description: as §1, §2

monkey liver microsomes = experiment: Incubation of F18 with monkey liver microsomes, metabolite profiling; assay type: in vitro ADME; parameters: key: +: Metabolite detected; −: metabolite not detected; conditions: F18 50 μM, 1 h
Description: as §1, §2

recombinant FMO3 = biological target: T1, recombinant FMO3 (Homo sapiens, UniProt P31513); experiment: Metabolism of F18 by cDNA-expressed FMO3; assay type: in vitro ADME; conditions: F18 10 μM, 50 pmol/mL enzyme, 1 h
T1 construct: purchased BD Gentest (Woburn, MA, USA)
T1 sequence (P31513 1-532): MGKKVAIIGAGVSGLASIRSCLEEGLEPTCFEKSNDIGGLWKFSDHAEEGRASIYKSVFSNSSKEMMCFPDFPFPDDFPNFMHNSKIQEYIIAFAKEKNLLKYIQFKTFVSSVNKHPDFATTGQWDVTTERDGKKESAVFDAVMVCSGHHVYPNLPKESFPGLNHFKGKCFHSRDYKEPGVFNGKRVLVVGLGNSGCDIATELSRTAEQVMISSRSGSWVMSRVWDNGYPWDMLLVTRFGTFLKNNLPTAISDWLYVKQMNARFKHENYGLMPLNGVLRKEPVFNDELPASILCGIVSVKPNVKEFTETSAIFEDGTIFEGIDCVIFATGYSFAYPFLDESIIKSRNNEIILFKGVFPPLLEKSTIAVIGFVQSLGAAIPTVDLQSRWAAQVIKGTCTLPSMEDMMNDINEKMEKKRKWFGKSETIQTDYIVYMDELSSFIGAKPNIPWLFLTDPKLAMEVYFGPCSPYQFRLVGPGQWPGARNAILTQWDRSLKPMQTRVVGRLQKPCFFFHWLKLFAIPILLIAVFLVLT
Description: (§3) To further verify the roles of CYPs and FMOs in the metabolism of F18 in humans, F18 (10 μM) was incubated individually with 14 cDNA-expressed human CYP isozymes (50-pmol/mL CYP1A1, CYP1A2, CYP2A6, CYP2B6, CYP2C8, CYP2C9, CYP2C19, CYP2D6, CYP2E1, CYP2J2, CYP3A4, CYP4F2, CYP4F3, and CYP4A11) and three cDNA-expressed FMO enzymes (50-pmol/mL FMO1, FMO3, and FMO5). The incubation conditions were similar to those used for HLMs (described above), with the exception of the incubating time […]. Samples incubated without NADPH were used as the negative control.

human liver cytosol = experiment: Incubation of F18 with human liver cytosol, metabolite profiling; assay type: in vitro ADME; parameters: key: +: Metabolite detected; −: metabolite not detected; conditions: F18 50 μM, 1 h
Description: as §1, §2

recombinant FMO1 = biological target: T2, recombinant FMO1 (Homo sapiens, UniProt Q01740); experiment: Metabolism of F18 by cDNA-expressed FMO1; assay type: in vitro ADME; conditions: F18 10 μM, 50 pmol/mL enzyme, 1 h
T2 construct: purchased BD Gentest (Woburn, MA, USA)
T2 sequence (Q01740 1-532): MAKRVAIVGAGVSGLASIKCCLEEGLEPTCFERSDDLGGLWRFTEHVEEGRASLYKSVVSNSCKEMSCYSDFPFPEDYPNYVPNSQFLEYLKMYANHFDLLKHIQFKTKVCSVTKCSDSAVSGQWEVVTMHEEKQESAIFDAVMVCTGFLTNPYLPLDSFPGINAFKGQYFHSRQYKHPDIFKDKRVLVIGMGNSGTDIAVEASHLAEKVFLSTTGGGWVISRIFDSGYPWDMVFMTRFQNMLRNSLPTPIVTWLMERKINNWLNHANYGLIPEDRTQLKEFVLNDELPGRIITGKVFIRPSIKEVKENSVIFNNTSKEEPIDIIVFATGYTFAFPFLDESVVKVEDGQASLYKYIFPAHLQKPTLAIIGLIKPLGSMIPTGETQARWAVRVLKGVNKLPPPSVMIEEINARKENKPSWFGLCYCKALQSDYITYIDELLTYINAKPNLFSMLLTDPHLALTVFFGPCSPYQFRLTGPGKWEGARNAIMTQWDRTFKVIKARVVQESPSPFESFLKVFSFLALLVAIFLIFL
Description: as §3

Compound | F18 metabolite detected in HLM (human liver microsomes) | IC50 (VSV-G/HIV-1 viruses) | F18 metabolite detected in RLM (rat liver microsomes) | F18 metabolite detected in MLM (monkey liver microsomes) | Metabolite detected in incubation with recombinant FMO3 (recombinant FMO3) | F18 metabolite detected in HLcy with NADH (human liver cytosol) | F18 metabolite detected in HLcy with NADPH (human liver cytosol) | Metabolite detected in incubation with recombinant FMO1 (recombinant FMO1) | Potency against HIV-1 relative to the parent compound (VSV-G/HIV-1 viruses)
CCCc1cc(=O)oc2c3c(c4c(c12)OC(C)(C)C=C4)O[C@H](CCl)C[C@H]3O (relative stereo) [Metabolite M3-1, trans-12-hydroxy F18] | + | 34 nM | + | + | detected | + | + | detected | 
CCCc1cc(=O)oc2c3c(c4c(c12)OC(C)(C)C=C4)O[C@H](CCl)C[C@@H]3O (relative stereo) [Metabolite M3-2, cis-12-hydroxy F18] | + | 51 nM | + | + | detected | + | + | detected | 
CCCc1cc(=O)oc2c3c(c4c(c12)OC(C)(C)C=C4)OC(CO)CC3=O (stereo not drawn) [Metabolite M1] | + |  | + | + | not detected | − | − | not detected | one fifth
